Laboratory results: paper PMC9229927, “New Alk(en)ylhydroxycyclohexanes with Tyrosinase Inhibition Potential from Harpephyllum caffrum Bernh. Gum Exudate” (Molecules, 2022)

Molecular target: mushroom tyrosinase (Agaricus bisporus, UniProt C7FF04)
Format: biochemical
Experimental: Tyrosinase inhibitory potential of alk(en)ylhydroxycyclohexanes has not been previously reported.
Tyrosinase inhibitory activity was determined spectrophotometrically with slight modifications. Briefly, tested samples were dissolved in DMSO to a final concentration of 20 mg/mL. In a 24-well plate, 30 μL of the samples was added to 970 μL of potassium phosphate buffer (0.1 M, pH 6.5) and serially diluted two-fold. The mixture (70 μL) was transferred to a 96-well plate containing 30 μL of potassium phosphate buffer (0.1 M, pH 6.5) to obtain increasing concentration range of (1.56–200 μg/mL). Then, 30 μL of mushroom tyrosinase solution (333 Units/mL in phosphate buffer, pH 6.5) was added to each mixture, which was then incubated at 25 °C for 5 min. Thereafter, 110 µL of 2 mM L-tyrosine was added in all wells of a 96-well microtiter plate and further incubated for 30 min at 25 °C. […] The absorbance of the mixture was read at 492 nm using an ELISA microplate reader (VarioSkan Flash, Thermo Fisher Scientific, Vantaa, Finland). All experiments were performed in triplicates. The percent inhibition of tyrosinase was calculated as follows: Tyrosinase inhibitory (%)=(Ao−A1/Ao) × 100 where A0 is the absorbance of the negative control with the enzyme without test samples, A1 is the absorbance of the test samples and enzyme.
Data were expressed as mean ± SD from three independent experiments. The IC50 values, corresponding to the concentration required to inhibit 50% of tyrosinase activity, were calculated from a sigmoidal dose–response of a non-linear regression and R-square values representing the best fit of the model were determined by Pearson nonlinear regression using the GraphPad Prism 5 software (GraphPad Software, San Diego, CA, USA). A one-way ANOVA was performed and differences between means were separated using the Tukey multiple comparison test at p < 0.05. Experiments were performed in triplicate.

Chain of mushroom tyrosinase (C7FF04 1-392): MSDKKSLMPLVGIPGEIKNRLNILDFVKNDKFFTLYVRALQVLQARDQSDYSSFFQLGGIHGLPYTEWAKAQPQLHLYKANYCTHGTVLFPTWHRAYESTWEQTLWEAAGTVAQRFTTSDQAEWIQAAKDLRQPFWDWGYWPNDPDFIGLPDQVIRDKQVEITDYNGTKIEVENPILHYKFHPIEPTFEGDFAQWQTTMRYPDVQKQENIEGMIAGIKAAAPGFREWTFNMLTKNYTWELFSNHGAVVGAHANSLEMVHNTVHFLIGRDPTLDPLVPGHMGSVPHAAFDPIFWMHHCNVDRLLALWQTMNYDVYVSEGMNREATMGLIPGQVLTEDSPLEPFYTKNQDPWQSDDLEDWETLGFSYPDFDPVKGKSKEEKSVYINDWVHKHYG

Row | SMILES | tyrosinase inhibition, rating in words
1 | CCCC/C=C\CCCCCCCCCCCc1cccc(O)c1 [Compound 1, 3-heptadec-12′-Z-enyl phenol] | moderately active
2 | CCCC/C=C\CCCCCCCCCCC[C@@]1(O)CCC[C@@H](O)C1 [Compound 2, (1R,3R)-1,3-dihydroxy-3-[heptadec-12′(Z)-enyl]cyclohexane] | good inhibition
3 | CCCC/C=C\CCCCCCCCCCCC[C@@]1(O)C[C@@H](O)[C@H](O)[C@@H](O)[C@H]1O [Compound 3, (1S,2S,3S,4S,5R)-1,2,3,4,5-pentahydroxy-5-[octadec-13′(Z)-enyl]cyclohexane] | good inhibition
4 | CCCC/C=C\CCCCCCCCCCC[C@]1(O)CC[C@@H](O)[C@H](O)C1 [Compound 4, (1R,2S,4R)-1,2,4-trihydroxy-4-[heptadec-12′(Z)-enyl]cyclohexane] | moderately active
